# pEC50, pIC50: −log10 of the molar value.
# Key:
# recombinant human GSK3β = recombinant human GSK3β (Homo sapiens, UniProt P49841); test: In vitro enzymatic assay for inhibition of GSK3β (Kinase-Glo Max luminescence); format: biochemical; conditions: 10 uM ATP, 0.1 mg/ml GSKtide, 30° C. for 40 minutes; read-out: Potency GSK-3beta
# Description: (§1) Enzymatic activities using recombinant human GSK3 using an in vitro enzymatic assay for inhibition GSK3α and GSK3β.
# (§2) The assay was performed using Kinase-Glo Max luminescence kinase assay kit (Promega). It measures kinase activity by quantitating the amount of ATP remaining in solution following a kinase reaction. The luminescent signal from the assay is correlated with the amount of ATP present and is inversely correlated with the amount of kinase activity. The compounds were diluted in 10% DMSO and 5 μl of the dilution was added to a 50 μl reaction so that the final concentration of DMSO is 1% in all of reactions. The enzymatic reactions were conducted at 30° C. for 40 minutes. The 50 μl reaction mixture contains 40 mM Tris, pH 7.4, 10 mM MgCl2, 0.1 mg/ml BSA, 2 mM DTT, 0.1 mg/ml GSKtide substrate, 10 uM ATP and GSK3. After the enzymatic reaction, 50 μl of Kinase-Glo Max Luminescence kinase assay solution (Promega) was added to each reaction and incubate the plate for 15 minutes at room temperature. Luminescence signal was measured using a BioTek Synergy 2 microplate reader.
# (§3) Kinase activity assays were performed in duplicate at each concentration. The luminescence data were analyzed using the computer software, Graphpad Prism. The difference between luminescence intensities in the absence of Kinase (Lut) and in the presence of Kinase (Luc) was defined as 100% activity (Lut−Luc). […]
# recombinant human GSK3α = recombinant human GSK3α (Homo sapiens, UniProt P49840); test: In vitro enzymatic assay for inhibition of GSK3α (Kinase-Glo Max luminescence); format: biochemical; conditions: 10 uM ATP, 0.1 mg/ml GSKtide, 30° C. for 40 minutes; read-out: Potency GSK-3alpha
# Description: as §1, §2, §3
# [1] = test system: Wnt signaling pathway, TCF/LEF reporter-HEK293 Recombinant cell lines; test: Wnt signaling pathway activation in HEK293 cells (TCF/LEF reporter, luciferase); format: cell-based; conditions: Homo sapiens, incubated overnight, read-out: Potency
# Description: Assay: Wnt Signaling Pathway Activation in HEK293 Cells. Materials:
# TCF/LEF reporter-HEK293 Recombinant cell lines
# One-Step Luciferase Assay System
# The assay was performed using TCF/LEF reporter-HEK293 Recombinant cell lines
# Plate 32,000 TCF/LEF reporter-HEK293 Recombinant cells/well in a 96-well plate (volume=90 μL). The compounds were diluted in the thawing medium 1 containing 1% DMSO, and add 10 μL to each well (0.1% DMSO at final). The cells were incubated for overnight at 37° C. in 5% CO2 followed by adding 100 μL of One-Step Luciferase Assay System to each well. Plate was incubated for 30 min at room temperature in a darkroom.
# Luminescence signal was measured using a BioTek Synergy 2 microplate reader.
# Wnt signaling pathway activation assays were performed in triplicates at each concentration. The luminescence data were analyzed using the computer software, Graphpad Prism. The luminescence intensity in the absence of Compounds (Luc) was defined the minimum activity and the signal in the presence of the highest concentration of the Compound was defined as the maximum activity. Signal from the wells containing medium only was defined as background. […]
# Lgr5-positive cells = test: Expansion of Lgr5-positive cochlear cells from Lgr5-EGFP-IRES-Cre-ER mice (flow cytometry for Lgr5-GFP); format: cell-based, mouse; conditions: 10 days (D10) in culture; for Potency: Lgr5-positive cell expansion; for % of Cells: percentage of GFP-positive (Lgr5-GFP) cells
# Description: Lgr5-EGFP-IRES-Cre-ER mice (Barker et al., 2007) (http://jaxmice.jax.org/strain/008875.html) are used to analyze the effects of small molecules on cochlear stem cell expansion.
# Isolation of stem cells from the inner ear: All animal studies are conducted under an approved institutional protocol according to National Institutes of Health guidelines. For experiments with neonatal mice (postnatal days 1-3), the cochleae are dissected in HBSS and the organ of Corti are separated from the stria vascularis and the modiolus. The organs of Corti are then treated with Cell Recovery Solution (Corning) for 1 h to separate cochlear epithelium from the underlying mesenchyme. Epithelia are then collected and treated with TrypLE (Life Technologies) for 15-20 minutes at 37° C. Single cells obtained by mechanical trituration are filtered (40 μm) and suspended in Matrigel (Corning) for 3D culture.
# Cells are cultured in a 1:1 mixture of DMEM and F12, supplemented with Glutamax (GIBCO), N2, B27 (Invitrogen), EGF (50 ng/ml; Chemicon), bFGF (50 ng/ml; Chemicon), IGF1 (50 ng/ml; Chemicon) and the composition provided herein. Media are changed every other day.
# Lgr5-positive cells are quantified after 10 days (D10) in culture in multiple conditions. Cell colonies are dissociated into single cells using TrypLE (Gibco). The cells are then stained with propidium iodide (PI) and are analyzed using a flow cytometer for Lgr5-GFP expression. The number of GFP-positive cells and the percentage of GFP-positive cells are quantified.
# Atoh1-nGFP-positive cells are quantified at day 0 (D0) and day 10 (D10) of differentiation treatment to determine the number of hair cells that have differentiated. Cell colonies are incubated in Cell Recovery Solution to release the colonies from Matrigel and dissociated into single cells using TrypLE. The total number and percentage of GFP-positive cells are quantified using a flow cytometer for multiple culture conditions. ANOVA is used to compare means across conditions, and the two-tailed Student's T-test is used to compare each condition to the treatment with the highest yield.
# recombinant human GSK3α, sequence (P49840 whole entry): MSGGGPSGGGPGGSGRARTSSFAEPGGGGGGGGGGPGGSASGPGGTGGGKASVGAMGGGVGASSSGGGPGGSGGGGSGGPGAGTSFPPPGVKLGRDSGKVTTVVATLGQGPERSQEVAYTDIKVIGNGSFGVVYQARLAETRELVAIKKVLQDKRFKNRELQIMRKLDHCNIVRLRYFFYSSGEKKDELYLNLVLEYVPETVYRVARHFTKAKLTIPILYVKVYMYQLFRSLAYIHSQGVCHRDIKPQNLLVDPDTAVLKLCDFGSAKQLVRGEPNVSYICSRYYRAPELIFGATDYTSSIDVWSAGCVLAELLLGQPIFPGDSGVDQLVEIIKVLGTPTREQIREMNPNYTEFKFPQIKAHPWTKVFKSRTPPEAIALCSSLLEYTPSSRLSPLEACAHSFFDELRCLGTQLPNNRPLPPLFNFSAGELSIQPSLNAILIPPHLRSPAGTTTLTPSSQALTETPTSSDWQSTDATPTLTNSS
# recombinant human GSK3β, sequence (P49841 whole entry): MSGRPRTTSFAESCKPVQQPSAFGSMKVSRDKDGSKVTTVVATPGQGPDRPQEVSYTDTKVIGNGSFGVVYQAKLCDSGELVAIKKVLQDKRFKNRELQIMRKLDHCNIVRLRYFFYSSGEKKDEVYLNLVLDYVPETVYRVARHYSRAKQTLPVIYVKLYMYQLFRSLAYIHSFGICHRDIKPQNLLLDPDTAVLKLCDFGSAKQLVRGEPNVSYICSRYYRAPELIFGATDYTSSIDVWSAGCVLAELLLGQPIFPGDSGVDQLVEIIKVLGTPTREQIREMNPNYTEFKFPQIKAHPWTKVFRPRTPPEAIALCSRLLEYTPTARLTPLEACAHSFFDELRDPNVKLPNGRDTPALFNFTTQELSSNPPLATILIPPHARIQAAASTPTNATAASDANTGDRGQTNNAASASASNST
pIC50 (recombinant human GSK3β),pIC50 (recombinant human GSK3α),SMILES,pEC50 [1],Potency (Lgr5-positive cells),% of Cells (Lgr5-positive cells)
7.66,7.81,O=C1NCC(c2cn3c4c(cc(F)cc24)CN(C(=O)N2CCCCC2)CC3)=C1c1cnc2ccccn12 [Compound I-4],7.22,333.3 nM,8.3%
8.08,8.09,O=C1NCC(c2cnc3ccccn23)=C1c1cn2c3c(cc(F)cc13)CN(C(=O)N1CCCCC1)CC2 [Compound I-49],> 8.00,333.3 nM,5.5%
